The values that follow come from EPA's ToxValDB 9.5.

Broadly, the NOAEL is the highest tested level that showed no adverse finding. By LOAEL is commonly meant the lowest dose or exposure tested at which an adverse effect was seen.

The structures appear in SMILES notation. ≈ marks a conversion by molar mass, not a printed value. Where “and” joins values, the source holds several entries; their conditions need not be identical. Equal values may be shown once. Bounds are passed on as bounds.

Data set [1] deals with Rattus norvegicus. The note with it: for LC50 / LD50: acute.
The next data set relates to Oryctolagus sp. Particulars: for LD50: acute, dermal.
Data set [2] has as its system Rattus norvegicus. The note with it: oral, gavage.
A further data set deals with Mus musculus. Particulars: oral.
The mark [3] stands for this setting: developmental, duration: 16 days, F, Wistar, Developmental: 20% decrease in serum T4 levels in pups on PND 16/17 + Endocrine: 20-30% decreases in serum T4 levels in dams.
The mark [4] stands for this setting: reproduction developmental, duration: 56 days, M, Sprague-Dawley, Endocrine: Hypertrophy and hyperplasia of thyroid follicular cells in males.
[5] abbreviates: reproduction developmental, duration: 56 days, M, Sprague-Dawley, Renal: 31% increase in BUN in males.
[6] abbreviates: developmental, duration: 1 days, gavage, M/F, NMRI, Developmental: Altered spontaneous behavior and habituation in adults exposed as neonates.
Setting [7] is: developmental, duration: 42 days, gavage, M/F, CD1, Developmental: Decrease in number of pups per litter with no change in pup to implantation site ratio.
The mark [8] stands for this setting: reproduction developmental, duration: 2 weeks, inhalation, Sprague-Dawley.

As for `Cc1ccc(N(C)C)cc1` [N,N,4-Trimethylaniline], in the data set with Rattus norvegicus [1] (inhalation, Sprague-Dawley), the LC50 was found to be 1.4 mg/L (≈ 10.4 µM). Further, the LD50 in the data set with Rattus norvegicus [1] (oral, Sprague-Dawley) was 1650 mg/kg; in the data set on Oryctolagus sp. (New Zealand), over 2000 mg/kg.
Compound `O=C(O)CCCCCCCCCCC(=O)O` [Dodecanedioic acid] showed an LC50 with Rattus norvegicus [1] (Inhalation) of over 4.3 mg/L. In addition, the LD50 is over 3000 mg/kg with Rattus norvegicus [1] (oral); over 17000 mg/kg in the data set on Rattus norvegicus [1] (oral, gavage); over 6000 mg/kg in the data set on Oryctolagus sp. (occlusive). The no observed adverse effect level (NOAEL) in the data set on Rattus norvegicus [1] (reproduction developmental, duration: 50 days, oral, gavage, CRL:CD BR) came out at 1000 mg/kg-day.
As for `CCC(C)OP(=S)([S-])OC(C)CC(C)C.CCC(C)OP(=S)([S-])OC(C)CC(C)C.[Zn+2]` (stereo not drawn), the LD50 was ≥ 2900 mg/kg and ≤ 3400 mg/kg with Rattus norvegicus [1] (oral, gavage, Sprague-Dawley); over 5000 mg/kg in the data set with Oryctolagus sp. (New Zealand).
Turning to `O=S(=O)(O)C(F)(F)C(F)(F)C(F)(F)C(F)(F)C(F)(F)C(F)(F)F` [Perfluorohexanesulfonic acid], the lowest observed adverse effect level (LOAEL) in the data set with Rattus norvegicus [2] (setting [3]) was found to be 5 mg/kg-day; in the data set with Rattus norvegicus [2] (developmental, duration: 16 days, F, Wistar, Developmental: 40% decrease in serum T4 levels in pups on PND 16 + Endocrine: 60% decreases in serum T4 levels in dams), 25 mg/kg-day; in the data set with Rattus norvegicus [2] (setting [4]) it was 3 mg/kg-day; with Rattus norvegicus [2] (reproduction developmental, duration: 56 days, M, Sprague-Dawley, Hematological: 6% increase in prothrombin time in males at ?0.3 mg/kg/day / decreases in hemoglobin (4%), hematocrit (3%), and RBC levels (…), 0.3 mg/kg-day; in the data set with Rattus norvegicus [2] (setting [5]), 10 mg/kg-day; in the data set with Mus musculus (setting [6]), 9.2 mg/kg-day. In addition, the LOAEL in the data set on Mus musculus (setting [7]) turned out to be 1 mg/kg-day; with Mus musculus (reproduction developmental, duration: 42 days, gavage, M/F, CD1, Hepatic: Single cell necrosis and microvascular fatty changes at 3 mg/kg/day / centrilobular hepatocellular hypertrophy at ?0.3 mg/kg/day …), 3 mg/kg-day. Also, the NOAEL was 0.05 mg/kg-day in the data set with Rattus norvegicus [2] (setting [3]); 10 mg/kg-day with Rattus norvegicus [2] (reproduction developmental, duration: 56 days, F, Sprague-Dawley, Hematological: 6% increase in prothrombin time in males at ?0.3 mg/kg/day / decreases in hemoglobin (4%), hematocrit (3%), and RBC levels (…); 10 mg/kg-day with Rattus norvegicus [2] (reproduction developmental, duration: 56 days, M/F, Sprague-Dawley, Hepatic: Increased liver weight / centrilobular hepatocellular hypertrophy in males at ?3 mg/kg/day + Immunotoxicological: No histological …); 1 mg/kg-day in the data set with Rattus norvegicus [2] (setting [4]); 3 mg/kg-day with Rattus norvegicus [2] (setting [5]); 45 mg/kg-day and 25 mg/kg-day in the data set with Rattus norvegicus [2] (short-term, duration: 16 days, F, Wistar). Besides, the no-observed-adverse-effect level (NOAEL) stood at 6.1 mg/kg-day with Mus musculus (setting [6]); 3 mg/kg-day with Mus musculus (developmental, duration: 42 days, gavage, M/F, CD1); 0.3 mg/kg-day in the data set on Mus musculus (setting [7]); 1 mg/kg-day in the data set on Mus musculus (developmental, duration: 42 days, gavage, M/F, CD1, Hepatic: Single cell necrosis and microvascular fatty changes at 3 mg/kg/day / centrilobular hepatocellular hypertrophy at ?0.3 mg/kg/day …); 10 mg/kg-day with Mus musculus (short-term, duration: 7 days, gavage, M, Hepatic: Hepatocellular hypertrophy, steatosis, and increased hepatic triglyceride levels); 6 mg/kg-day in the data set on Mus musculus (subchronic, duration: 6 weeks, diet, M, Hepatic: Decreased plasma triglyceride, cholesterol, non-HDL cholesterol, and HDL cholesterol levels / increased hepatic triglyceride …).
`CCOP(=S)(S)OCC` [Diethyl dithiophosphoric acid] registered an LC50 in the data set with Rattus norvegicus [1] (inhalation) of 1640 mg/m3. The LD50 in the data set with Rattus norvegicus [1] (oral) is 4510 mg/kg; with Oryctolagus sp. (New Zealand), over 2000 mg/kg.
In the data set on Rattus norvegicus [1] (Inhalation, Wistar), `CCCCCCCCCc1cc2ccccc2c(S(=O)(=O)[O-])c1CCCCCCCCC.CCCCCCCCCc1cc2ccccc2c(S(=O)(=O)[O-])c1CCCCCCCCC.[Ba+2]` [Naphthalenesulfonic acid, dinonyl-, barium salt] registered an LC50 of over 21 mg/L. The LD50 is over 5000 mg/kg with Rattus norvegicus [1] (oral, diet, Sprague-Dawley); over 5000 mg/kg in the data set on Rattus norvegicus [1] (oral, gavage, Wistar); under 20000 mg/kg in the data set on Oryctolagus sp. (New Zealand).
On to `CCCCOC(=O)CC` [Butyl propionate], for which the LD50 was over 2000 mg/kg with Rattus norvegicus [1] (dermal, occlusive, Fischer 344); over 5000 mg/kg in the data set with Rattus norvegicus [1] (oral, gavage, Fischer 344); 11000 mg/kg in the data set on Rattus norvegicus [1] (oral, gavage, Sprague-Dawley); over 14000 mg/kg with Rattus norvegicus [1] (oral, gavage, Wistar); over 14000 mg/kg in the data set with Oryctolagus sp. (occlusive, New Zealand); over 14000 mg/kg with Oryctolagus sp. (occlusive, albino). The compound also returned an LC50 in the data set with Rattus norvegicus [1] (oral, gavage, Sprague-Dawley) of 12300 mg/kg. The no observed adverse effect level (NOAEL) was at least 10600 mg/m3 in the data set with Rattus norvegicus [1] (developmental, duration: 10 days, inhalation, Sprague-Dawley) and 2660 mg/m3 with Rattus norvegicus [1] (setting [8]). Moreover, the LOAEL in the data set on Rattus norvegicus [1] (setting [8]) stood at 13300 mg/m3; in the data set on Rattus norvegicus [1] (reproduction developmental, duration: 13 weeks, inhalation, Sprague-Dawley), 3990 mg/m3; in the data set on Rattus norvegicus [1] (short-term, duration: 11 days, inhalation, Fischer 344), 4260 mg/m3.
Turning to `CCCCCCCCCCCCCCCCN.F` [1-Hexadecanamine, hydrofluoride], the no observed adverse effect level (NOAEL) turned out to be 30 mg/kg-day in the data set on Rattus norvegicus [1] (reproduction developmental, duration: 10 days, oral, gavage, F, Long-Evans); 6 mg/kg-day in the data set on Rattus norvegicus [1] (reproduction developmental, oral, gavage, Long-Evans, generation: F0); 30 mg/kg-day in the data set with Rattus norvegicus [1] (reproduction developmental, oral, gavage, Long-Evans, generation: F1). Besides, the LOAEL with Oryctolagus sp. (reproduction developmental, duration: 13 days, oral, gavage, F, New Zealand) was 1.2 mg/kg-day.
